According to US10544112B2, “Identification of ebsulfur analogues with broad-spectrum antifungal activity” (priority 2017, dated 2020):
Values after ≈ are worked out from the molar mass of the structure shown.

Key:
[1] = test system: Aspergillus terreus ATCC MYA-3633 (strain M); assay: Antifungal MIC determination, filamentous fungi spores; assay type: cell-based; conditions: strain M, all compounds, spores
Procedure: (§1) Fungal MIC determination experiments were performed using untreated 96-well plates (Corning). Cells were counted either by using a hemocytometer (Hausser Scientific, Horsham, Pa., USA) or by measuring optical density at attenuance of 600 nm (OD600) by using a Genesys 20 spectrophotometer (Thermo Scientific, Waltham, Mass., USA). Spectrophotometric and colorimetric measurements in 96-well plates were performed using a SpectraMax M5 spectrometer (Molecular Devices, Sunnyvale, Calif., USA).
(§2) Yeast strains Candida albicans ATCC 10231 (strain A), C. albicans ATCC 64124 (strain B), and C. albicans ATCC MYA-2876(S) (strain C) were kindly provided by Dr. Jon Y. Takemoto (Utah State University, Logan, UT, USA). C. albicans ATCC MYA-90819(R) (strain D), C. albicans ATCC MYA-2310(S) (strain E), C. albicans ATCC 1237(R) (strain F), C. albicans ATCC MYA-1003(R) (strain G), Candida glabrata ATCC 2001 (strain H), Candida krusei ATCC 6258 (strain I), and Candida parapsilosis ATCC 22019 (strain J) were obtained from the American Type Culture Collection (ATCC, Manassas, Va., USA). The (S) and (R) indicate that ATCC reports these strains to be susceptible (S) and resistant (R) to ITC and FLC. The filamentous fungal strains Aspergillus flavus ATCC MYA-3631 (strain K), and Aspergillus terreus ATCC MYA-3633 (strain M) were also obtained from the American Type Culture Collection (ATCC, Manassas, Va., USA). Aspergillus nidulans ATCC 38163 (strain L) was kindly provided by Dr. Jon S. Thorson (University of Kentucky, Lexington, Ky., USA), respectively. Yeast strains were cultured at 35° C. Filamentous fungal strains were cultured at 25° C. and the spores were harvested. All fungal strains were cultured in RPMI 1640 medium (catalog # R6504, Sigma-Aldrich Chemical Co., St. Louis, Mo.) buffered to pH 7.0 with 0.165 M morpholinepropanesulfonic acid (MOPS) buffer (Sigma-Aldrich Chemical Co.).
(§3) The MIC values against fungal strains were determined based on a previously published protocol. MIC values for ebsulfur (2a) analogues against fungal cells were evaluated in 96-well plates as described in the CLSI document M27-A3 with minor modifications. […] Therefore, potato dextrose broth (PDB) was used to grow the yeast inocula of all strains tested, which were later diluted in RPMI 1640 medium to perform determination of MIC values. […] The tested compounds (10 mg/mL) were diluted to the working stocks (500 μg/mL) by addition of DMSO. Two-fold serial dilution of the working stocks was prepared by addition of RPMI 1640 medium (100 μL) and cell suspension (100 μL) to 96-well microtiter plate to achieve final drug and inoculum concentrations ranging from 12.5-0.02 μg/mL and 5×10^3 CFU/mL, respectively. Plates were incubated for 48 h at 35° C.
(§4) MIC assays for the spore-forming filamentous fungi, such as strain A. flavus ATCC MYA-3631 (strain K), were performed in a similar fashion. The filamentous fungal strains were first cultured at 25° C. on potato dextrose agar (PDA) plates for 3-5 days or until confluent. Spores were collected by washing the surface of the agar plates with dd H2O (5 mL) and then isolated the spores by gravity filtration (the spores are H2O soluble). […] Researchers working with spores should wear a facemask to prevent spore inhalation.

[2] = test system: Aspergillus nidulans ATCC 38163 (strain L); assay: as above; assay type: cell-based; conditions: strain L; spores
Procedure: as §1, §2, §3, §4

[3] = test system: Aspergillus flavus ATCC MYA-3631 (strain K); assay: as above; assay type: cell-based; conditions: all compounds
Procedure: as §1, §2, §3, §4

[4] = test system: Candida albicans ATCC 10231 (strain A); assay: Antifungal MIC determination (CLSI M27-A3, 96-well); assay type: cell-based; conditions: strain A; compounds 1-4n and AmB; 48 h, RPMI 1640
Procedure: as §1, §2
as §3, with “C. […]” for “C.”

[5] = test system: Candida krusei ATCC 6258 (strain I); assay: as above; assay type: cell-based; conditions: strain I; for MIC-0: compounds 1-4n and AmB, 48 h, RPMI 1640
Procedure: as §1, §2
as §3, with “C. […]” for “C.”

[6] = test system: Candida glabrata ATCC 2001 (strain H); assay: as above; assay type: cell-based; conditions: strain H; for MIC-0: compounds 1-4n and AmB, 48 h, RPMI 1640
Procedure: as §1, §2
as §3, with “C. […]” for “C.”

[7] = test system: Candida parapsilosis ATCC 22019 (strain J); assay: as above; assay type: cell-based; conditions: strain J; for MIC-0: compounds 1-4n and AmB, 48 h, RPMI 1640
Procedure: as §1, §2
as §3, with “C. […]” for “C.”

[8] = test system: C. albicans ATCC MYA-2876(S) (strain C); assay: as above; assay type: cell-based, Candida albicans; conditions: strain C; compounds 1-4n and AmB; 48 h, RPMI 1640
Procedure: as §1, §2
as §3, with “C. […]” for “C.”

[9] = test system: C. albicans ATCC MYA-2310(S) (strain E); assay: as above; assay type: cell-based, Candida albicans; conditions: strain E; compounds 1-4n and AmB; 48 h, RPMI 1640
Procedure: as §1, §2
as §3, with “C. […]” for “C.”

[10] = test system: C. albicans ATCC MYA-1003(R) (strain G); assay: microbe, parasite or virus in culture; assay type: cell-based, Candida albicans; conditions: strain G; compounds 1-4n and AmB; 48 h, RPMI 1640
Procedure: as §1, §2
as §3, with “C. […]” for “C.”

[11] = test system: C. albicans ATCC 64124 (strain B); assay: microbe, parasite or virus in culture; assay type: cell-based, Candida albicans; conditions: strain B; compounds 1-4n and AmB; 48 h, RPMI 1640
Procedure: as §1, §2
as §3, with “C. […]” for “C.”

[12] = test system: C. albicans ATCC 90819(R) (strain D); assay: microbe, parasite or virus in culture; assay type: cell-based, Candida albicans; conditions: strain D; compounds 1-4n and AmB; 48 h, RPMI 1640
Procedure: as §1, §2
as §3, with “C. […]” for “C.”

[13] = test system: C. albicans ATCC MYA-1237(R) (strain F); assay: microbe, parasite or virus in culture; assay type: cell-based, Candida albicans; conditions: strain F; compounds 1-4n and AmB; 48 h, RPMI 1640
Procedure: as §1, §2
as §3, with “C. […]” for “C.”

Row | SMILES | MIC-0 [1] [µg/mL] | MIC-0 [2] [µg/mL] | MIC-0 [3] [µg/mL] | MIC-0 [4] [µg/mL] | MIC-0 [5] [µg/mL] | MIC-0 [6] [µg/mL] | MIC-0 [7] [µg/mL] | MIC-0 [8] [µg/mL] | MIC-0 [9] [µg/mL] | MIC-0 [10] [µg/mL] | MIC-0 [11] [µg/mL] | MIC-0 [12] [µg/mL] | MIC-0 [13] [µg/mL] | MIC ([1]; Aspergillus terreus, read-out: MIC-0) [µg/mL] | MIC ([3]; Aspergillus flavus, read-out: MIC-0) [µg/mL] | MIC ([5]; Pichia kudriavzevii, ATCC6258, azoles, read-out: MIC-2) [µg/mL] | MIC ([6]; Nakaseomyces glabratus, ATCC2001, azoles, read-out: MIC-2) [µg/mL] | MIC ([7]; Lodderomyces parapsilosis, ATCC22019, azoles, read-out: MIC-2) [µg/mL]
1 | O=c1c2ccccc2sn1-c1ccc(F)cc1 [Compound 2b] | 12.5 (≈ 51 µM) | 12.5 (≈ 51 µM) | 6.25 (≈ 25.5 µM) | 3.13 (≈ 12.8 µM) | 3.13 (≈ 12.8 µM) | 6.25 (≈ 25.5 µM) | 12.5 (≈ 51 µM) | 3.13 (≈ 12.8 µM) | 3.13 (≈ 12.8 µM) | 1.56 (≈ 6.36 µM) | 6.25 (≈ 25.5 µM) | 3.13 (≈ 12.8 µM) | 6.25 (≈ 25.5 µM) |  |  |  |  | 
2 | O=c1c2ccccc2sn1-c1ccc(Cl)cc1 [Compound 2c] | 6.25 (≈ 23.9 µM) | 6.25 (≈ 23.9 µM) | 6.25 (≈ 23.9 µM) | 3.13 (≈ 12 µM) | 3.13 (≈ 12 µM) | 6.25 (≈ 23.9 µM) | 12.5 (≈ 47.8 µM) | 12.5 (≈ 47.8 µM) | 6.25 (≈ 23.9 µM) | 12.5 (≈ 47.8 µM) | >12.5 | 6.25 (≈ 23.9 µM) | 6.25 (≈ 23.9 µM) |  |  |  |  | 
3 | O=c1c2ccccc2sn1-c1ccc(Br)cc1 [Compound 2d] | 12.5 (≈ 40.8 µM) | 12.5 (≈ 40.8 µM) | 12.5 (≈ 40.8 µM) | 3.13 (≈ 10.2 µM) | 3.13 (≈ 10.2 µM) | 6.25 (≈ 20.4 µM) | 6.25 (≈ 20.4 µM) | 1.56 (≈ 5.09 µM) | 0.78 (≈ 2.55 µM) | 3.13 (≈ 10.2 µM) | 3.13 (≈ 10.2 µM) | 3.13 (≈ 10.2 µM) | 1.56 (≈ 5.09 µM) |  |  |  |  | 
4 | CC(C)c1cccc(-n2sc3ccccc3c2=O)c1 [Compound 2h] | 12.5 (≈ 46.4 µM) | 12.5 (≈ 46.4 µM) | 6.25 (≈ 23.2 µM) | 3.13 (≈ 11.6 µM) | 3.13 (≈ 11.6 µM) | 3.13 (≈ 11.6 µM) | 3.13 (≈ 11.6 µM) | 3.13 (≈ 11.6 µM) | 3.13 (≈ 11.6 µM) | 3.13 (≈ 11.6 µM) | 3.13 (≈ 11.6 µM) | 3.13 (≈ 11.6 µM) | 3.13 (≈ 11.6 µM) |  |  |  |  | 
5 | O=c1c2ccccc2sn1-c1cc(Br)cc(Br)c1 [Compound 2i] | 12.5 (≈ 32.5 µM) | 3.13 (≈ 8.13 µM) | 12.5 (≈ 32.5 µM) | 3.13 (≈ 8.13 µM) | 6.25 (≈ 16.2 µM) | 6.25 (≈ 16.2 µM) | 6.25 (≈ 16.2 µM) | 6.25 (≈ 16.2 µM) | 6.25 (≈ 16.2 µM) | 6.25 (≈ 16.2 µM) | 6.25 (≈ 16.2 µM) | 6.25 (≈ 16.2 µM) | 3.13 (≈ 8.13 µM) |  |  |  |  | 
6 | Cc1cc(C)cc(-n2sc3ccccc3c2=O)c1 [Compound 2j] | 12.5 (≈ 49 µM) | 12.5 (≈ 49 µM) | 12.5 (≈ 49 µM) | 3.13 (≈ 12.3 µM) | 12.5 (≈ 49 µM) | 12.5 (≈ 49 µM) | 12.5 (≈ 49 µM) | 1.56 (≈ 6.11 µM) | 0.78 (≈ 3.05 µM) | 3.13 (≈ 12.3 µM) | 6.25 (≈ 24.5 µM) | 12.5 (≈ 49 µM) | 3.13 (≈ 12.3 µM) |  |  |  |  | 
7 | COc1cc(OC)cc(-n2sc3ccccc3c2=O)c1 [Compound 2k] | 6.25 (≈ 21.8 µM) | 6.25 (≈ 21.8 µM) | 6.25 (≈ 21.8 µM) | 12.5 (≈ 43.5 µM) | 6.25 (≈ 21.8 µM) | 6.25 (≈ 21.8 µM) | 6.25 (≈ 21.8 µM) | 3.13 (≈ 10.9 µM) | 1.56 (≈ 5.43 µM) | 12.5 (≈ 43.5 µM) | 12.5 (≈ 43.5 µM) | 3.13 (≈ 10.9 µM) | 12.5 (≈ 43.5 µM) |  |  |  |  | 
8 | O=c1c2ccccc2sn1-c1cccc2ccccc12 [Compound 2l] | 12.5 (≈ 45.1 µM) | 12.5 (≈ 45.1 µM) | 12.5 (≈ 45.1 µM) | 6.25 (≈ 22.5 µM) | 6.25 (≈ 22.5 µM) | 12.5 (≈ 45.1 µM) | 12.5 (≈ 45.1 µM) | >12.5 | >12.5 | 6.25 (≈ 22.5 µM) | 12.5 (≈ 45.1 µM) | 3.13 (≈ 11.3 µM) | >12.5 |  |  |  |  | 
9 | O=c1c2ccccc2sn1-c1ccccn1 [Compound 2m] | 12.5 (≈ 54.8 µM) | 12.5 (≈ 54.8 µM) | 12.5 (≈ 54.8 µM) | 6.25 (≈ 27.4 µM) | 6.25 (≈ 27.4 µM) | 12.5 (≈ 54.8 µM) | 12.5 (≈ 54.8 µM) | 12.5 (≈ 54.8 µM) | 6.25 (≈ 27.4 µM) | 6.25 (≈ 27.4 µM) | 6.25 (≈ 27.4 µM) | 6.25 (≈ 27.4 µM) | 6.25 (≈ 27.4 µM) |  |  |  |  | 
10 | CCCCCCCCn1sc2ccccc2c1=O [Compound 3c] | ≤0.02 | ≤0.02 | ≤0.02 | 6.25 (≈ 23.7 µM) | 1.56 (≈ 5.92 µM) | 1.56 (≈ 5.92 µM) | 0.78 (≈ 2.96 µM) | 6.25 (≈ 23.7 µM) | 1.56 (≈ 5.92 µM) | 1.56 (≈ 5.92 µM) | 1.56 (≈ 5.92 µM) | 3.13 (≈ 11.9 µM) | 1.56 (≈ 5.92 µM) |  |  |  |  | 
11 | CCC(C)n1ncn(-c2ccc(N3CCN(c4ccc(OCC5COC(Cn6cncn6)(c6ccc(Cl)cc6Cl)O5)cc4)CC3)cc2)c1=O (stereo not drawn) [ITC, itraconazole, reference compound] |  |  |  |  |  |  |  |  |  |  |  |  |  | 0.975 (≈ 1.38 µM) | 0.48 (≈ 0.68 µM) | 0.48 (≈ 0.68 µM) | 7.8 (≈ 11.1 µM) | 0.12 (≈ 0.17 µM)
